# Assay results from PubChem BioAssay AID687029 (Broad Institute, 2013).
# Test system: RMG-1 viability, CellTiterGlo ATP luminescence, 96 h
# Assay: RMG-1 ovarian cancer cell viability loss – cherry-pick, dose response (AID 687029)
row,Structure (SMILES),AC50 [nM]
1,C(=Cc1cnc2ccccc2n1)c1ccc2c(c1)OCO2,12900
2,COc1cc(OC)cc(C(=O)NCC(=O)OCC(=O)c2cc(C)n(Cc3ccco3)c2C)c1,< 260
3,Cc1ccc(Cl)cc1N1CCN(C(=O)c2noc(C)c2[N+](=O)[O-])CC1,< 260
4,O=C1c2cccc3cc([N+](=O)[O-])cc(c23)C(=O)N1CCN1CCCC1,< 260
5,C[C@@H]1CN([C@H](C)CO)C(=O)c2cc(NS(=O)(=O)c3ccc(Cl)cc3)ccc2O[C@@H](C)CCCCO[C@@H]1CN(C)Cc1ccccc1,< 260
6,Cn1c(SCC(=O)c2ccccc2)nnc1-c1ccccn1,1420
7,CC(C)CCCCCCCCCCCCC(=O)NCC(=O)NC1C(C)OC(Nc2ncnc3nc[nH]c23)C(O)C1O (centres undefined),275
8,C[C@@H]1CN([C@@H](C)CO)C(=O)Cc2cc(NS(=O)(=O)c3ccc(Cl)cc3)ccc2O[C@H]1CN(C)Cc1ccc(Oc2ccccc2)cc1,< 260
9,C[C@@H]1CN([C@H](C)CO)S(=O)(=O)c2ccc(C#CC3CCCC3)cc2O[C@@H]1CN(C)C(=O)Cc1ccncc1,< 260
10,COc1cc(/C=N/O)ccc1OCc1ccc(C(=O)O)cc1,12800
11,COc1ccc(-c2nc3c(c(SCC(=O)Nc4cccc(O)c4)n2)Cc2c(CO)cnc(C)c2O3)cc1,10500
12,COc1ccc(-n2nc3c(N4CCC(C(=O)NCc5cccc(C)c5)CC4)nnc(C)c3c2C)cc1,< 260
13,COc1cc(C=C2C(=O)C=CC2=O)ccc1O,< 260
14,O=C(NCc1ccco1)C1CCCN(S(=O)(=O)c2ccc(Br)cc2)C1 (centres undefined),< 260
15,Cc1ccsc1/C=N/Nc1cccc(C(=O)O)c1,13200
16,COc1ccccc1C(=O)Nc1nc2ccccc2[nH]1,12300
17,COc1ccc(F)cc1-c1cc(NC=O)c2ncc(-c3cc(OC)c(OC)c(OC)c3)n2c1,< 260
18,C[C@H](O)[C@@H]1CN2CCc3c([nH]c4ccc(-c5ccc6c(c5)OCO6)cc34)[C@@H]2C[C@@H]1N(C)C(=O)NC1CCCCC1,< 260
19,COc1cc2nc(C3CCC3)nc(N3CCN(c4ccccc4OC)CC3)c2cc1OC,< 260
20,CSC(=Nc1ccccc1)N=C(SCc1ccccc1)N(C)C,< 260
21,CC(C)(C)[C@H](N)C(=O)N[C@H]1CCC2C3CC=C4C[C@@H](O)CC[C@]4(C)C3CC[C@@]21C (some centres undefined),< 260
22,COc1ccc(Cn2cc3c(-c4ccc(F)cc4)nnc-3c3cc(OC)c(OC)cc32)cc1,21300
23,O=C(c1cc([N+](=O)[O-])ccc1N1CCOCC1)N1CCN(c2ccccc2)CC1,< 260

row,Structure (SMILES),AC50 [nM]
1,Cc1cccc(N(Cc2cc(=O)[nH]c3ccccc23)C(=O)CCl)c1,< 260
2,COc1cccc(-c2ccc([C@H]3[C@@H](CO)N(C(=O)Cc4ccccc4)[C@H]3C#N)cc2)c1,< 260
3,CCSc1cc(N2CCOCC2)nc(-c2ccc(Cl)cc2)n1,< 260
4,C[C@@H]1CCCCO[C@@H](CN(C)S(=O)(=O)c2ccc(Cl)cc2)[C@H](C)CN([C@H](C)CO)C(=O)c2cc(NS(=O)(=O)c3ccc(F)cc3)ccc2O1,1720
5,COCCn1c(C)cc(C2=NNC(=NC3CC3)SC2)c1C,< 260
6,C[C@@H]1CCCCO[C@@H](CN(C)C(=O)Nc2cccc3ccccc23)[C@H](C)CN([C@H](C)CO)C(=O)c2cc(NS(=O)(=O)c3ccccc3)ccc2O1,< 260
7,CCCNC(=O)Nc1ccc2c(c1)OC[C@H](C)N(Cc1ccc(-c3ccccn3)cc1)C[C@@H](C)[C@@H](OC)CN(C)C2=O,< 260
8,O=C(Nc1ccccc1)NN(C(=O)CCl)c1ccccc1,12400
9,O=C(CSc1ncccc1-c1nc2ccccc2[nH]1)N1CCc2ccccc21,< 260
10,CCOc1ccc(C(=O)C(CCC(CN(C)C)C(=O)c2ccc(OCC)cc2)CN(C)C)cc1 (centres undefined),< 260
11,CCCC(=O)NC1=C(Cl)C(=O)c2ccccc2C1=O,< 260
12,Brc1ccc(-n2cc(-c3ccccc3)c3c(NN4CCOCC4)ncnc32)cc1,< 260
13,COc1cccc(CC(=O)Nc2nc3c(s2)C(=O)CC(C)(C)C3)c1,< 260
14,COc1ccc(N2C(=O)CC(Sc3nnc(-c4ccccc4)o3)C2=O)cc1 (centres undefined),< 260
15,CCN(CC)S(=O)(=O)c1cc(NC(=O)Cn2ncc(Cl)c(Cl)c2=O)ccc1C,< 260
16,Cc1ccc(-c2csc3ncnc(Sc4nnc(CN5CCCCCC5=O)o4)c23)cc1,10800
17,Cc1ccc(S(=O)(=O)CC(CN2CCCCC2)N2CCCCC2)cc1 (centres undefined),< 260
18,c1cc2c(cc1C1=NNC(=NC3CC3)SC1)OCCO2,< 260
19,COc1cccc(S(=O)(=O)NCC(=O)Nc2ccc(C(C)(C)C)cc2)c1,< 260
20,Cn1ncc2c(O/N=C(\N)c3ccc(C(F)(F)F)cc3)ncnc21,< 260
21,Cc1ccccc1CNC(=O)C1CCCN(c2nnc(C)c3c(C)n(-c4ccccc4)nc23)C1 (centres undefined),< 260
22,C[C@@H]1CCCCO[C@@H](CN(C)C(=O)Nc2cccc3ccccc23)[C@H](C)CN([C@H](C)CO)C(=O)c2cc(NS(=O)(=O)c3ccc(F)cc3)ccc2O1,< 260
23,C[C@]12CC[C@H]3[C@@H](CC[C@]4(O)C[C@@H](O)CC[C@]34C=O)[C@@]1(O)CC[C@@H]2C1=CC(=O)OC1,< 260

row,Structure (SMILES),AC50 [nM]
1,COc1cc(OC)c2c(-c3cccc(-c4ccc(OC)c(F)c4)c3)cc(=O)oc2c1,11400
2,CCOc1ccc(NC(=O)Nc2cc(OCC(F)(F)F)cc(OCC(F)(F)F)c2)cc1,9370
3,CN1c2ccc(-c3cccc(F)c3)cc2[C@@H]2[C@@H](CCN2C(=O)Cc2ccccc2)[C@@H]1CO,479
4,CCOC(=O)c1c(-c2ccc(F)cc2)csc1NC(=O)CN1C(=O)NC2(CCCCC2C)C1=O (centres undefined),12400
5,Cc1ccc(NC(=O)Cn2ncc(Cl)c(Cl)c2=O)cc1S(=O)(=O)N1CCCCC1,< 260
6,S=c1sc2c(Cl)ncnc2n1-c1ccccc1,< 260
7,Cn1c(CCN2CCCC2)nc2cc(NS(=O)(=O)c3ccccc3)ccc21,< 260
8,CC(=O)[C@@]1(O)Cc2c(O)c3c(c(O)c2[C@H](O[C@H]2C[C@H](N)[C@H](O)[C@H](C)O2)C1)C(=O)c1ccccc1C3=O,9480
9,CCC(c1nnnn1Cc1ccccc1)N1CCC(n2c(=O)[nH]c3ccccc32)CC1 (centres undefined),< 260
10,Cc1nnc(N/N=C/c2cc(C)n(-c3ccc(F)cc3)c2C)n1N,8360
11,Cc1cc(C(C)(C)C)cc(C)c1Cn1c2[n+](c3ccc(C(F)(F)F)cc31)CCCCC2,< 260
12,COc1ccc(C2=NNC(=Nc3cc(S(=O)(=O)N(C)C)ccc3C)SC2)c(OC)c1,< 260
13,COc1ccc(NC(=O)c2c(Nc3ccccc3)sc(C(=O)c3ccc(F)cc3)c2N)cc1,< 1000
14,C[C@]12CCC3C(CCC4=CC(O)CC[C@@]43/C=N/O)C1(O)CCC2C1=CC(=O)OC1 (some centres undefined),< 260
15,C[C@@H]1CCCCO[C@H](CN(C)Cc2ccc(C(F)(F)F)cc2)[C@H](C)CN([C@H](C)CO)C(=O)c2cc(NS(=O)(=O)c3cccs3)ccc2O1,< 260
16,O=C(Nc1cccc(NC(=O)c2cccs2)c1)c1ccc([N+](=O)[O-])o1,11100
17,O=C(CN1C(=O)c2ccccc2S1(=O)=O)c1ccc2c(c1)OCCO2,< 260
18,Cn1nnnc1Sc1ncnc2scc(-c3cccc(S(C)(=O)=O)c3)c12,10200
19,COc1ccc2c(COC(=O)CNC(=O)C34CC5CC(CC(C5)C3)C4)cc(=O)oc2c1,< 260
20,Cc1ccc(NC(=O)CN(C)C(=O)Cn2ncc(Cl)c(Cl)c2=O)cc1,< 260
21,CCOc1ccc2nc(N/C(N)=N/C(=S)Nc3ccc(C)c(C)c3)nc(C)c2c1,< 260
22,CCCC(=O)NC(c1ccc(C(C)C)cc1)c1ccc2cccnc2c1O (centres undefined),< 260
23,CN(C(=O)OC(C)(C)C)c1ccc(-c2nc3ccccc3s2)cc1,< 260
